{"source": "ChEMBL document CHEMBL5215009", "about": "“Discovery of Pan-peroxisome Proliferator-Activated Receptor Modulators from an Endolichenic Fungus, Daldinia childiae” (J Nat Prod, 2022)", "key": {"Mesenchymal stem cells [1]": {"test_system": "Mesenchymal stem cells", "assay": "Induction of adipogenesis in differentiated human BMMSC cells assessed as fold increase in adiponectin level in presence of IDX by ELISA", "assay_type": "functional, cell-based"}, "Mesenchymal stem cells [2]": {"test_system": "Mesenchymal stem cells", "assay": "Induction of adipogenesis in differentiated human BMMSC cells assessed as fold increase in adiponectin level at 5 uM in presence of IDX by ELISA relative to control", "assay_type": "functional"}, "Mesenchymal stem cells [3]": {"test_system": "Mesenchymal stem cells", "assay": "Induction of adipogenesis in differentiated human BMMSC cells assessed as increase in adiponectin level at 30 uM in presence of IDX by ELISA", "assay_type": "functional, cell-based"}, "Mesenchymal stem cells [4]": {"test_system": "Mesenchymal stem cells", "assay": "Induction of adipogenesis in differentiated human BMMSC cells assessed as fold increase in adiponectin level at 30 uM in presence of IDX by ELISA relative to control", "assay_type": "functional"}, "Mesenchymal stem cells [5]": {"test_system": "Mesenchymal stem cells", "assay": "Induction of adipogenesis in differentiated human BMMSC cells assessed as increase in number and size of lipid droplets at 30 uM in presence of IDX by Oil red O staining based inverted microscope analysis", "assay_type": "functional, cell-based"}, "[6]": {"target": "T1, Peroxisome proliferator-activated receptor alpha (Homo sapiens) (UniProt Q07869)", "T1 sequence (whole entry)": "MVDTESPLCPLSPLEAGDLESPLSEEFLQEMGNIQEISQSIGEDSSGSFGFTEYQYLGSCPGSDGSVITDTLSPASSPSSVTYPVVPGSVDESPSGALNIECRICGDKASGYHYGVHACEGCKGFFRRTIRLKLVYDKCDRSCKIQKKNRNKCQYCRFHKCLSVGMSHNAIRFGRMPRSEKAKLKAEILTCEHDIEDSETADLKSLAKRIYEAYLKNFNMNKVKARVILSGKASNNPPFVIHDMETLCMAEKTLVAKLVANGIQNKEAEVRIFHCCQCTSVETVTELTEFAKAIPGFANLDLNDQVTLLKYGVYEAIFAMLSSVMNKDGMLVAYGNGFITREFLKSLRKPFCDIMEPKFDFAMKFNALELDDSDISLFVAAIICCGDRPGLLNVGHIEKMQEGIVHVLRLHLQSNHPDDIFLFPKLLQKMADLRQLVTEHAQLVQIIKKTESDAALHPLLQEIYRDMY", "assay": "Displacement of fluormone pan-PPARgreen from PPARalpha (unknown origin) at 30 uM by TR-FRET based competitive binding assay relative to control"}, "[7]": {"target": "T2, Peroxisome proliferator-activated receptor gamma (Homo sapiens) (UniProt P37231)", "T2 sequence (whole entry)": "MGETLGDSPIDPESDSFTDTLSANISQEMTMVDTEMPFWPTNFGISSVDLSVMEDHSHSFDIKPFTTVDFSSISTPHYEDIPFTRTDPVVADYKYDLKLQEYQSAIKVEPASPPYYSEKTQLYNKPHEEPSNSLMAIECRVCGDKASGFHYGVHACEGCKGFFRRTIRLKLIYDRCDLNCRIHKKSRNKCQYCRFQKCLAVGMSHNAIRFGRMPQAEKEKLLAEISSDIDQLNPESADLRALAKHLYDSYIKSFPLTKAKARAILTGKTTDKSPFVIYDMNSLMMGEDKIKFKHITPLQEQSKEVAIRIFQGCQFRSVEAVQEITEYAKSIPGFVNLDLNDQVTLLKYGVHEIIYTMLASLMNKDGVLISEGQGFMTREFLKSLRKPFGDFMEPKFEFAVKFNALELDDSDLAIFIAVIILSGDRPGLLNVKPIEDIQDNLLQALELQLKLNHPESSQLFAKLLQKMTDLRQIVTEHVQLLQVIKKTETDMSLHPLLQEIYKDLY", "assay": "Displacement of fluormone pan-PPARgreen from PPARgamma (unknown origin) at 30 uM by TR-FRET based competitive binding assay relative to control", "conditions": "filed as partial agonist"}, "[8]": {"target": "T3, Peroxisome proliferator-activated receptor delta (Homo sapiens) (UniProt Q03181)", "T3 sequence (whole entry)": "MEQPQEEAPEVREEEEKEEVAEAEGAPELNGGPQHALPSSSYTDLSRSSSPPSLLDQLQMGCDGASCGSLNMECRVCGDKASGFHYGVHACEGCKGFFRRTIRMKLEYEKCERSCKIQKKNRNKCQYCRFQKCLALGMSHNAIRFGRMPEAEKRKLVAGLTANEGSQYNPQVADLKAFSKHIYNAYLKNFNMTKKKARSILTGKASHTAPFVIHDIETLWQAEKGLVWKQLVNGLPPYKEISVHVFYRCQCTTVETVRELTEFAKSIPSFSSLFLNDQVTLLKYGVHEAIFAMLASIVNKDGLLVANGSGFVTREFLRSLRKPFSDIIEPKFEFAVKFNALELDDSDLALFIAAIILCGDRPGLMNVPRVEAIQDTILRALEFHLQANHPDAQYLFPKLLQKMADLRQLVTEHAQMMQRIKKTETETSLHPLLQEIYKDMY", "assay": "Displacement of fluormone pan-PPARgreen from PPARdelta (unknown origin) at 30 uM by TR-FRET based competitive binding assay relative to control", "conditions": "filed as partial agonist"}, "[9]": {"target": "T4, Peroxisome proliferator-activated receptor alpha (Homo sapiens, UniProt Q07869)", "T4 sequence (Q07869 whole entry)": "T1 sequence (whole entry)", "assay": "Binding affinity to PPARalpha (unknown origin) assessed as inhibition constant by Cheng-Prusoff equation analysis"}, "[10]": {"target": "T5, Peroxisome proliferator-activated receptor gamma (Homo sapiens, UniProt P37231)", "T5 sequence (P37231 whole entry)": "T2 sequence (whole entry)", "assay": "Binding affinity to PPARgamma (unknown origin) assessed as inhibition constant by Cheng-Prusoff equation analysis"}, "[11]": {"target": "T6, Peroxisome proliferator-activated receptor delta (Homo sapiens, UniProt Q03181)", "T6 sequence (Q03181 whole entry)": "T3 sequence (whole entry)", "assay": "Binding affinity to PPARdelta (unknown origin) assessed as inhibition constant by Cheng-Prusoff equation analysis"}, "[12]": {"target": "T2, Peroxisome proliferator-activated receptor gamma (Homo sapiens)", "assay": "Partial agonist activity at PPARgamma in human BMMSC cells assessed as inhibition of pioglitazone-induced adiponectin synthesis measured after 5 days by ELISA", "assay_type": "cell-based", "conditions": "filed as partial agonist, dose 10-30 µM, time 5.0 day, DDE = dose-dependent effect"}, "[13]": {"target": "T4, Peroxisome proliferator-activated receptor alpha", "assay": "Partial agonist activity at PPARalpha (unknown origin) assessed as increase in PRIP/RAP250 coactivator peptide requirement by Lanthascreen TR-FRET assay"}, "[14]": {"target": "T5, Peroxisome proliferator-activated receptor gamma", "assay": "Partial agonist activity at PPARgamma (unknown origin) assessed as increase in fluorescein labeled PRIP/RAP250 coactivator peptide requirement by Lanthascreen TR-FRET assay"}, "[15]": {"target": "T2, Peroxisome proliferator-activated receptor gamma (Homo sapiens)", "assay": "Partial agonist activity at PPARgamma (unknown origin) assessed as increase in fluorescein labeled SRC-1 coactivator peptide requirement by Lanthascreen TR-FRET assay", "conditions": "filed as partial agonist"}, "[16]": {"target": "T2, Peroxisome proliferator-activated receptor gamma (Homo sapiens)", "assay": "Partial agonist activity at PPARgamma (unknown origin) assessed as increase in fluorescein labeled SRC-2 coactivator peptide requirement by Lanthascreen TR-FRET assay", "conditions": "filed as partial agonist"}, "[17]": {"target": "T6, Peroxisome proliferator-activated receptor delta", "assay": "Partial agonist activity at PPARdelta (unknown origin) assessed as increase in fluorescein labeled PRIP/RAP250 coactivator peptide requirement by Lanthascreen TR-FRET assay"}, "[18]": {"target": "T7, Retinoic acid receptor RXR-alpha (Homo sapiens) (UniProt P19793)", "T7 sequence (whole entry)": "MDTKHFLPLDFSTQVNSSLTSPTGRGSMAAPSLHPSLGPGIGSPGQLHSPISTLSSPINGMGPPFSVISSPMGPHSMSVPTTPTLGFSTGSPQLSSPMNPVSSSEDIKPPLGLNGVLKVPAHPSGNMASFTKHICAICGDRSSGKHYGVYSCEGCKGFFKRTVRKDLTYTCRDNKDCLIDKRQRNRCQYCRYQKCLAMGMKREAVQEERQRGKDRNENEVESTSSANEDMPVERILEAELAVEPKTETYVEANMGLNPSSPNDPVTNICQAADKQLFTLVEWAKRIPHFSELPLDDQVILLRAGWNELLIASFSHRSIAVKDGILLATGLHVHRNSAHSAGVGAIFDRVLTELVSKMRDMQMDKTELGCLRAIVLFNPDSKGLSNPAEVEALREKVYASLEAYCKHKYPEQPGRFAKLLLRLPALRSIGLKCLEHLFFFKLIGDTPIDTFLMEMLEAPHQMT", "assay": "Agonist activity at RXRalpha-LBD (unknown origin) assessed as transactivation by measuring increase in fluorescein-labelled coactivator PGC-1alpha peptide recruitment at 60 uM by Lanthascreen TR-FRET assay relative to control", "conditions": "filed as agonist"}, "[19]": {"target": "T8, Retinoic acid receptor RXR-alpha (Homo sapiens, UniProt P19793)", "T8 sequence (P19793 whole entry)": "T7 sequence (whole entry)", "assay": "Agonist activity at RXRalpha-LBD (unknown origin) assessed as transactivation by measuring increase in fluorescein-labelled coactivator PGC-1alpha peptide recruitment by Lanthascreen TR-FRET"}}, "note": "Activity calls are given as the source filed them. The calls are words filed in the database; no cut-off is given here."}
{"smiles": "CCc1ccc(CCOc2ccc(CC3SC(=O)NC3=O)cc2)nc1", "note": "(stereo not given) [PIOGLITAZONE]", "values": [{"measurement": "EC50", "setting": "Mesenchymal stem cells [1]", "value": 0.79, "unit": "µM"}]}
{"smiles": "COc1ccc(Cl)cc1C(=O)NCCc1ccc(S(=O)(=O)NC(=O)NC2CCCCC2)cc1", "note": "[GLYBURIDE]", "values": [{"measurement": "fold change (FC)", "setting": "Mesenchymal stem cells [2]", "value": 4.93}]}
{"smiles": "COc1cccc2ccc(-c3cc(-c4ccc(O)c5c(OC)cccc45)c(O)c4c(OC)cccc34)c(O)c12", "values": [{"measurement": "Activity", "setting": "Mesenchymal stem cells [3]", "value": "Active"}]}
{"smiles": "COc1cccc2ccc(-c3ccc4cccc(OC)c4c3O)c(O)c12", "values": [{"measurement": "Activity", "setting": "Mesenchymal stem cells [3]", "value": "Active"}]}
{"smiles": "COc1cccc2c(-c3cc(-c4ccc(O)c5c(OC)cccc45)c4cccc(OC)c4c3O)ccc(O)c12", "values": [{"measurement": "Activity", "setting": "Mesenchymal stem cells [3]", "value": "Active"}]}
{"smiles": "COc1cccc2ccc(-c3cc(-c4ccc5cccc(OC)c5c4O)c4cccc(OC)c4c3O)c(O)c12", "values": [{"measurement": "fold change (FC)", "setting": "Mesenchymal stem cells [4]", "value": 4.1}, {"measurement": "EC50", "setting": "Mesenchymal stem cells [1]", "value": 30.8, "unit": "µM"}, {"measurement": "Activity", "setting": "Mesenchymal stem cells [5]", "value": "Active"}, {"measurement": "Activity", "setting": "[6]; filed as partial agonist", "value": 56.5, "unit": "%"}, {"measurement": "Activity", "setting": "[7]", "value": 52, "unit": "%"}, {"measurement": "Activity", "setting": "[8]", "value": 51.8, "unit": "%"}, {"measurement": "Ki", "setting": "[9]", "value": 9.4, "unit": "µM"}, {"measurement": "Ki", "setting": "[10]", "value": 19.1, "unit": "µM"}, {"measurement": "Ki", "setting": "[11]", "value": 18.8, "unit": "µM"}, {"measurement": "inhibition", "setting": "[12]", "value": "Dde"}, {"measurement": "EC50", "setting": "[13]", "value": 58.2, "unit": "µM"}, {"measurement": "EC50", "setting": "[14]", "value": 50.8, "unit": "µM"}, {"measurement": "Activity", "setting": "[15]", "value": "Active"}, {"measurement": "Activity", "setting": "[16]", "value": "Active"}, {"measurement": "EC50", "setting": "[17]", "value": 53.9, "unit": "µM"}, {"measurement": "Activity", "setting": "[18]", "value": 53.2, "unit": "%"}, {"measurement": "EC50", "setting": "[19]", "value": 52.9, "unit": "µM"}]}
{"smiles": "O=C1CCC(O)c2cccc(O)c21", "note": "(stereo not given)", "values": [{"measurement": "Activity", "setting": "Mesenchymal stem cells [3]", "value": "Active"}]}
{"smiles": "CC(=O)c1c(O)cccc1O", "values": [{"measurement": "Activity", "setting": "Mesenchymal stem cells [3]", "value": "Active"}]}
{"smiles": "Cc1cc(=O)c2c(O)cccc2o1", "values": [{"measurement": "Activity", "setting": "Mesenchymal stem cells [3]", "value": "Active"}]}
{"smiles": "COc1cccc2c(-c3ccc(O)c4c(OC)cccc34)ccc(O)c12", "values": [{"measurement": "Activity", "setting": "Mesenchymal stem cells [3]", "value": "Active"}]}
{"smiles": "COc1cccc2ccc(-c3cc(-c4ccc(O)c5c(OC)cccc45)c4cccc(OC)c4c3O)c(O)c12", "values": [{"measurement": "Activity", "setting": "Mesenchymal stem cells [3]", "value": "Active"}]}
{"smiles": "COc1cccc2ccc(-c3ccc(O)c4c(OC)cccc34)c(O)c12", "values": [{"measurement": "fold change (FC)", "setting": "Mesenchymal stem cells [4]", "value": 6}, {"measurement": "EC50", "setting": "Mesenchymal stem cells [1]", "value": 15.2, "unit": "µM"}, {"measurement": "Activity", "setting": "Mesenchymal stem cells [5]", "value": "Active"}, {"measurement": "Activity", "setting": "[6]", "value": 37.6, "unit": "%"}, {"measurement": "Activity", "setting": "[7]", "value": 61.2, "unit": "%"}, {"measurement": "Activity", "setting": "[8]", "value": 42.1, "unit": "%"}, {"measurement": "Ki", "setting": "[10]", "value": 6.6, "unit": "µM"}, {"measurement": "inhibition", "setting": "[12]", "value": "Dde"}]}
